This passage reports Activity results from ChEMBL document CHEMBL1155403, “Simple and conveniently accessible bi-fluorescence-labeled substrates for amylases” (Bioorg Med Chem Lett, 2010).

The target of this experiment is T1, Alpha-amylase 1A (Homo sapiens) (UniProt P0DUB6).
T1 sequence (whole entry): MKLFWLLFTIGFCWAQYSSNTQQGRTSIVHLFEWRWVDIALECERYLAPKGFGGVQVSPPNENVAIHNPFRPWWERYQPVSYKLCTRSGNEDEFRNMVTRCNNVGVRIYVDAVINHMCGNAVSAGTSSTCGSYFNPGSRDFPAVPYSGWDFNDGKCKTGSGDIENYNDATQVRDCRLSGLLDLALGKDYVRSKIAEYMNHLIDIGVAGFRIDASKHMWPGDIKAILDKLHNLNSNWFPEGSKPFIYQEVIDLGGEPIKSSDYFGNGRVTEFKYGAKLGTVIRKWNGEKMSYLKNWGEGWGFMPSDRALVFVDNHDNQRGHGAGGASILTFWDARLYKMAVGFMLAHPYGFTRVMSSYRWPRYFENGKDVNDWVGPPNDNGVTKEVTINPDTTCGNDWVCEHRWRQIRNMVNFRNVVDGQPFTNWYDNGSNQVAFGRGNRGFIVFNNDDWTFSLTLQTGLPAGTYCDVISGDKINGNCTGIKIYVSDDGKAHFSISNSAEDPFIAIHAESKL
The experiment can be described thus: Activity of human salivary alpha amylase by FRET assay.

Activity calls are given as the source filed them. The rule behind the calls is not given here.

Consider `CN(C)c1cccc2c(S(=O)(=O)NCCSCCCCCS[C@@H]3O[C@H](CO)[C@@H](O[C@H]4O[C@H](COCc5ccc6ccccc6c5)[C@@H](O)[C@H](O)[C@H]4O)[C@H](O)[C@H]3O)cccc12`, for which the result was inactive.

Consider `CN(C)c1cccc2c(S(=O)(=O)NCCSCCCCCS[C@@H]3O[C@H](CO)[C@@H](O[C@H]4O[C@H](CO)[C@@H](O[C@H]5O[C@H](CO)[C@@H](O[C@H]6O[C@H](CO)[C@@H](O[C@H]7O[C@H](CO)[C@@H](O[C@H]8O[C@H](COCc9ccc%10ccccc%10c9)[C@@H](O)[C@H](O)[C@H]8O)[C@H](O)[C@H]7O)[C@H](O)[C@H]6O)[C@H](O)[C@H]5O)[C@H](O)[C@H]4O)[C@H](O)[C@H]3O)cccc12`, for which the result was Active.
